The results in this text go back to ChEMBL document CHEMBL1135372, “3-Aryl pyridone derivatives. Potent and selective kappa opioid receptor agonists” (Bioorg Med Chem Lett, 2002).

SMILES strings stand for the structures.

Assay [1] addresses T1, Kappa-type opioid receptor (Homo sapiens, UniProt P41145). The assay can be described thus: Binding affinity towards kappa opioid receptor by the displacement of [125I]-(D-Pro10)-Dynorphin A. For orientation: Displacement assays read how much labelled ligand stays bound in the presence of the test substance.
Another assay concerns the target Mu-type opioid receptor (Homo sapiens, UniProt P35372). As to the kind of experiment: Binding affinity towards mu opioid receptor by the displacement of [125I]Enkephalin.
Assay [2] addresses Delta-type opioid receptor (Homo sapiens, UniProt P41143). As to the kind of experiment: Binding affinity towards delta opioid receptor by the displacement of [125I]deltorphin.
Assay [3] has as its target T1, Kappa-type opioid receptor. The assay can be described thus: Functional activity in HEK293 cells overexpressing the human kappa opioid receptor was determined using a radiolabeled [35S]GTP-gamma-S, assay. In kind it is cell-based.

Chain of Mu-type opioid receptor (P35372 whole entry): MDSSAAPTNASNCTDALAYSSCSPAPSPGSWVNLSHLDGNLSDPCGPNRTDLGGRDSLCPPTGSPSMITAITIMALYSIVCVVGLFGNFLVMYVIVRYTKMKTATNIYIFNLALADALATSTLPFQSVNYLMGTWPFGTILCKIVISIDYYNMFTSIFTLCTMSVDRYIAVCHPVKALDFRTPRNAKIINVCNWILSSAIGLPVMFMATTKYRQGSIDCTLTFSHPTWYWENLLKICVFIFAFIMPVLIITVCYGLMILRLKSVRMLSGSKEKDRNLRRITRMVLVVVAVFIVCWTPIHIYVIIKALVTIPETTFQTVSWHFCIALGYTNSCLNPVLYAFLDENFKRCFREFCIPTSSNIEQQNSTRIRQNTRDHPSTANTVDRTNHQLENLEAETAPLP
Chain of Delta-type opioid receptor (P41143 whole entry): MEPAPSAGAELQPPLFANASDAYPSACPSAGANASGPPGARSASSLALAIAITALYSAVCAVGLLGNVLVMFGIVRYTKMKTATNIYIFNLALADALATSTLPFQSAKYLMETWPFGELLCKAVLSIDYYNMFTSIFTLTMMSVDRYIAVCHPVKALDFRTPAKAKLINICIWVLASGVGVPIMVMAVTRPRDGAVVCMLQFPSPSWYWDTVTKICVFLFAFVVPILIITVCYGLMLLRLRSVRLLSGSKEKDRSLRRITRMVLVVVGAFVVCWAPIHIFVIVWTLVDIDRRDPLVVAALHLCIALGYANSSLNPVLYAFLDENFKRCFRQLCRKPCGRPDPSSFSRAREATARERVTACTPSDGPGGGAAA
T1 sequence (P41145 whole entry): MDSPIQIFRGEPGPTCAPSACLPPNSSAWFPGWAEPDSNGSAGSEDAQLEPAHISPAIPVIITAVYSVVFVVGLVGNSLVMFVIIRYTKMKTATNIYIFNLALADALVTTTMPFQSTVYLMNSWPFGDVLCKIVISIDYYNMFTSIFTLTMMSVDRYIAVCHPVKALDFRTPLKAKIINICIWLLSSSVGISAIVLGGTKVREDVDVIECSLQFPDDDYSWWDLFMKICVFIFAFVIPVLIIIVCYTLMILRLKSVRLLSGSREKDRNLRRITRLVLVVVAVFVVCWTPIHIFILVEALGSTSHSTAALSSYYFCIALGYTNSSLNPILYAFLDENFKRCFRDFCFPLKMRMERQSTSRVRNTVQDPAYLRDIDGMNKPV

Consider `O=c1c(-c2cc(F)ccc2F)cccn1C(CN1CCCC1)c1ccccc1` (centres undefined), for which the IC50 in assay [1] was 0.0225 µM; at Mu-type opioid receptor, above 10 µM; in assay [2], above 10 µM.
`Cc1cccc(-c2cccn(C(CN3CCCC3)c3ccccc3)c2=O)c1` (centres undefined): the values for the IC50 (in assay [1]; on Mu-type opioid receptor; in assay [2]) were 0.0793 µM, above 10 µM and 0.639 µM, respectively.
For `O=c1c(-c2ccc(F)cc2)cccn1C(CN1CCCC1)c1ccccc1` (centres undefined), in that order: 0.0348 µM, above 10 µM and above 10 µM.
With `COc1ccccc1-c1cccn(C(CN2CCCC2)c2ccccc2)c1=O` (centres undefined), the half-inhibitory concentration (IC50) was 0.0195 µM in assay [1], 1.2 µM on Mu-type opioid receptor and above 10 µM in assay [2].
Consider `O=c1c(-c2ccccc2)cccn1C(CN1CCCC1)c1ccccc1` (centres undefined), for which the IC50 in assay [1] was 0.0563 µM; at Mu-type opioid receptor it was above 10 µM; in assay [2], above 10 µM.
As to `O=c1c(-c2cccc(Cl)c2)cccn1C(CN1CCCC1)c1ccccc1` (centres undefined), the IC50 in assay [1] is 0.0024 µM; on Mu-type opioid receptor, 0.308 µM; in assay [2] it was above 10 µM.
Consider `O=c1c(-c2cc3ccccc3o2)cccn1C(CN1CCCC1)c1ccccc1` (centres undefined), for which the IC50 in assay [1] was 0.271 µM. In other words, the sub-micromolar range.
As for `COc1ccc(OC)c(-c2cccn(C(CN3CCCC3)c3ccccc3)c2=O)c1` (centres undefined), the 50% inhibitory concentration (IC50) in assay [1] is 0.00344 µM; on Mu-type opioid receptor it was above 5 µM; in assay [2], above 10 µM.
For `N#Cc1cccc(-c2cccn(C(CN3CCCC3)c3ccccc3)c2=O)c1` (centres undefined), in that order: 0.0053 µM, 4.28 µM and above 10 µM.
`COc1ccc(-c2cccn(C(CN3CCCC3)c3ccccc3)c2=O)cc1` (centres undefined): the IC50 amounted to 0.0494 µM in assay [1], 1.46 µM on Mu-type opioid receptor and 5.21 µM in assay [2].
In the case of `O=c1c(-c2ccccc2C(F)(F)F)cccn1C(CN1CCCC1)c1ccccc1` (centres undefined), the IC50 in assay [1] is 0.0057 µM; at Mu-type opioid receptor, 1.68 µM; in assay [2], above 10 µM.
The corresponding values for `O=c1c(-c2cccc([N+](=O)[O-])c2)cccn1C(CN1CCCC1)c1ccccc1` (centres undefined) are 0.0022 µM, 3.91 µM and above 10 µM.
As for `O=c1ccc(-c2ccc(Cl)cc2)cn1C(CN1CCCC1)c1ccccc1` (centres undefined), the IC50 in assay [1] was determined as 0.524 µM.
With `O=c1ccc(-c2ccc(Cl)c(Cl)c2)cn1C(CN1CCCC1)c1ccccc1` (centres undefined), in assay [1], the IC50 amounted to 1.49 µM.
Regarding `O=c1c(-c2ccc(Cl)cc2)cccn1C(CN1CCCC1)c1ccccc1` (centres undefined), the IC50 was 0.0055 µM in assay [1], 4.84 µM at Mu-type opioid receptor and above 10 µM in assay [2].
`O=c1c(-c2ccc3ccccc3c2)cccn1C(CN1CCCC1)c1ccccc1` (centres undefined): the IC50 in assay [1] is 0.0319 µM; on Mu-type opioid receptor, 2.68 µM; in assay [2], above 10 µM.
On to `O=c1c(-c2ccc(C(F)(F)F)cc2)cccn1C(CN1CCCC1)c1ccccc1` (centres undefined), for which the ED50 in assay [3] was found to be 0.0494 µM. For the same molecule, the IC50 in assay [1] was 0.0087 µM; at Mu-type opioid receptor, 2.72 µM; in assay [2] it was above 10 µM.
With `O=c1c(-c2ccc(Cl)c(Cl)c2)cccn1C(CN1CCCC1)c1ccccc1` (centres undefined), the values for the IC50 (in assay [1]; on Mu-type opioid receptor; in assay [2]) were 0.0023 µM, 2.06 µM and above 10 µM, respectively.
For the molecule `O=c1c(-c2cccs2)cccn1C(CN1CCCC1)c1ccccc1` (centres undefined), the IC50 in assay [1] stood at 1.18 µM.
`COc1ccc(Cl)cc1-c1cccn(C(CN2CCCC2)c2ccccc2)c1=O` (centres undefined): the IC50 in assay [1] was 0.0015 µM; on Mu-type opioid receptor, 1.24 µM; in assay [2], 4.17 µM.
For `O=c1c(-c2ccc(OC(F)(F)F)cc2)cccn1C(CN1CCCC1)c1ccccc1` (centres undefined), in that order: 0.0342 µM, 1.1 µM and above 10 µM.
As for `COc1ccc(F)cc1-c1cccn(C(CN2CCCC2)c2ccccc2)c1=O` (centres undefined), the half-inhibitory concentration (IC50) was 0.0034 µM in assay [1], 3.46 µM at Mu-type opioid receptor and 4.35 µM in assay [2].

By IC50 is commonly meant the concentration needed to halve the response being measured. A low value points to greater potency in that assay.
